From PMC6152134, “Synthesis and In Vitro Anticancer Activity of Novel Dehydroabietic Acid-Based Acylhydrazones” (Molecules : A Journal of Synthetic Chemistry and Natural …, 2017)

How the values were obtained:
[1] = tested on: CNE-2 (nasopharynx) human carcinoma cell line; assay: MTT cytotoxicity assay, CNE-2 cells; type: cell-based; conditions: 48 h exposure
Procedure: (§1) Compounds 4a–x were evaluated for their cytotoxic activity in vitro against the human cancer cell lines, CNE-2, HepG2, HeLa, and BEL-7402 by using a 3-(4,5-dimethylthiazol-2-yl)-2,5-diphenyl tetrazolium bromide (MTT) colorimetric assay. Cisplatin was included in the experiments as a positive control, and the IC50 of DHA is also presented to compare the anticancer activities. The calculated IC50 values were reported differently according to the different cancer cells.
(§2) The CNE-2, HepG2, HeLa, and BEL-7402 cell lines used in this work were all purchased from the Institute of Biochemistry and Cell Biology, China Academy of Sciences. All were supplemented with 10% heat-inactivated fetal bovine serum in a humidified atmosphere of 5% CO2/95% air at 37 °C. In order to investigate the potential of compounds 4, cisplatin, a commercial classical anticancer drug was used as a reference drug. CNE-2, HepG2, HeLa, and BEL-7402 cells were seeded into 96-well microculture plates and allowed to adhere for 24 h, respectively. After cells were exposed to compounds at concentrations from 100 to 0.1 μM for 48 h, medium was aspirated and replenished with complete medium. IC50 values was evaluated by MTT tetrazolium dye assay. All the tests were repeated in at least three independent experiments. The IC50 values of the compounds were calculated using SPSS Version 10 software (IBM, New York, NY, USA), which defined the IC50 value as the concentration required to inhibit cell growth by 50%.

[2] = tested on: HeLa (epithelial cervical) human carcinoma cell line; assay: MTT cytotoxicity assay, HeLa cells; type: cell-based; conditions: 48 h exposure
Procedure: as §1, §2

[3] = tested on: HepG2 (liver) human carcinoma cell line; assay: MTT cytotoxicity assay, HepG2 cells; type: cell-based; conditions: 48 h exposure
Procedure: as §1, §2

[4] = tested on: BEL-7402 (liver) human carcinoma cell line; assay: MTT cytotoxicity assay, BEL-7402 cells; type: cell-based; conditions: 48 h exposure
Procedure: as §1, §2

[5] = tested on: HL-7702 normal human liver cell line; assay: MTT cytotoxicity assay, HL-7702 normal liver cells; type: cell-based
[6] = tested on: human promyelocytic leukemic cells (HL-60); parameters: method as in PMID 20884091; conditions: read-out: IC50 against HL-60; cited from earlier work
[7] = L02, normal human liver cell HL-7702

SMILES	IC50 ([1]; Homo sapiens) [µM]	melting point [°C]	IC50 ([2]; Homo sapiens, HeLa, 48 h) [µM]	IC50 ([3]; Homo sapiens, HepG2, 48 h) [µM]	IC50 ([4]; Homo sapiens) [µM]	IC50 [5, 7] [µM]	IC50 [6] [µM]	IC50 [1] [µM]	IC50 [2] [µM]	IC50 [3] [µM]	IC50 [4] [µM]	IC50 ([5]; normal human liver cell HL-7702) [µM]
CC(C)c1ccc2c(c1)CCC1C(C)(C(=O)OCC(=O)NN=Cc3ccccc3F)CCCC21C (centres unmarked) [4q, Dehydroabietic acid-based 2-fluorophenyl acylhydrazone]	27.4 ± 0.72	130.2 to 130.5	27.71 ± 0.14	93.76 ± 0.39	22.8 ± 0.34	> 100	–	–	–	–	–	–
CC(C)c1ccc2c(c1)CCC1C(C)(C(=O)OCC(=O)NN=Cc3cccc([N+](=O)[O-])c3)CCCC21C (centres unmarked) [4i]	12.6 ± 0.24	99.6 to 101.9	13.9 ± 0.41	57.8 ± 0.75	44.65 ± 0.21	77.1 ± 0.96	–	–	–	–	–	–
CC(C)c1ccc2c(c1)CCC1C(C)(C(=O)OCC(=O)NN=Cc3ccccc3O)CCCC21C (centres unmarked) [4g]	60.4 ± 1.02	214.9 to 215.6	27.3 ± 0.5	12.5 ± 0.46	36.4 ± 0.74	> 100	–	–	–	–	–	–
COc1cc(C=NNC(=O)COC(=O)C2(C)CCCC3(C)c4ccc(C(C)C)cc4CCC23)ccc1O (centres unmarked) [4d]	38.7 ± 0.49	117.6 to 119	12.22 ± 0.08	35.26 ± 0.11	33.6 ± 0.38	50.7 ± 1.82	–	–	–	–	–	–
CC(C)c1ccc2c(c1)CCC1C(C)(C(=O)OCC(=O)NN=Cc3cccc(F)c3)CCCC21C (centres unmarked) [4r]	51 ± 0.94	166 to 167.3	12.8 ± 0.13	31.6 ± 0.47	25.9 ± 0.53	68.6 ± 1.25	–	–	–	–	–	–
CC(C)c1ccc2c(c1)CCC1C(C)(C(=O)OCC(=O)NN=Cc3ccccc3)CCCC21C (centres unmarked) [4a]	28.2 ± 0.43	155.1 to 156.7	17.89 ± 0.13	27.8 ± 0.58	36.7 ± 0.34	> 100	–	–	–	–	–	–
Cc1ccc(C=NNC(=O)COC(=O)C2(C)CCCC3(C)c4ccc(C(C)C)cc4CCC23)cc1 (centres unmarked) [4b]	17.2 ± 0.21	170 to 172.1	6.72 ± 0.22	12.4 ± 0.31	15.38 ± 0.08	68.6 ± 2.14	–	–	–	–	–	–
CC(C)c1ccc2c(c1)CCC1C(C)(C(=O)OCC(=O)NN=Cc3ccc(F)cc3)CCCC21C (centres unmarked) [4s]	49.81 ± 0.49	169.2 to 170.5	28.79 ± 0.24	90.08 ± 0.33	25.22 ± 0.22	> 100	–	–	–	–	–	–
COc1cccc(C=NNC(=O)COC(=O)C2(C)CCCC3(C)c4ccc(C(C)C)cc4CCC23)c1 (centres unmarked) [4o]	86.46 ± 0.13	136.7 to 137.9	32.06 ± 0.21	51.3 ± 0.63	14.8 ± 0.38	> 100	–	–	–	–	–	–
CC(C)c1ccc2c(c1)CCC1C(C)(C(=O)OCC(=O)NN=Cc3c(F)cccc3F)CCCC21C (centres unmarked) [4v]	26.8 ± 0.46	107.3 to 110	15 ± 0.21	16.9 ± 0.18	20.5 ± 0.53	44.6 ± 2.02	–	–	–	–	–	–
O=C(N/N=C/c1ccccc1O)c1ccc(-c2ccc(F)cc2F)o1 [(E)-2-hydroxybenzaldehyde-5-(2,4-difluorophenyl)-2-furoyl hydrazone]	–	–	–	–	–	–	16.4	–	–	–	–	–
CC(C)c1ccc2c(c1)CCC1C(C)(C(=O)OCC(=O)NN=Cc3cc(F)cc(F)c3)CCCC21C (centres unmarked) [4w]	15.4 ± 0.21	182.6 to 186.6	2.21 ± 0.04	12.07 ± 0.07	14.5 ± 0.22	66.1 ± 1.84	–	–	–	–	–	–
CC(C)c1ccc2c(c1)CCC1C(C)(C(=O)OCC(=O)NN=Cc3ccc(F)cc3F)CCCC21C (centres unmarked) [4u, N’-(2,4-Difluorobenzylidene)-2-(dehydroabietyloxy)acetohydrazide]	32.83 ± 0.16	181.9 to 184.5	5.86 ± 0.09	25.4 ± 0.54	18.6 ± 0.37	55.8 ± 1.38	–	–	–	–	–	–
CC(C)c1ccc2c(c1)CCC1C(C)(C(=O)OCC(=O)NN=Cc3ccc([N+](=O)[O-])cc3)CCCC21C (centres unmarked) [4j]	93.26 ± 0.52	177.2 to 179.8	13.06 ± 0.08	39.5 ± 0.82	27.45 ± 0.17	> 100	–	–	–	–	–	–
COc1ccc(C=NNC(=O)COC(=O)C2(C)CCCC3(C)c4ccc(C(C)C)cc4CCC23)cc1 (centres unmarked) [4p, N’-(4-Methoxybenzylidene)-2-(dehydroabietyloxy)acetohydrazide]	56.98 ± 0.08	174.8 to 175.5	34.33 ± 0.32	48.59 ± 0.09	55.29 ± 0.44	91.8 ± 1.57	–	–	–	–	–	–
CC(C)c1ccc2c(c1)CCC1C(C)(C(=O)OCC(=O)NN=Cc3ccc(Br)cc3)CCCC21C (centres unmarked) [4m]	89.66 ± 0.27	188.1 to 188.6	12.8 ± 0.15	9.94 ± 0.59	23.1 ± 0.33	> 100	–	–	–	–	–	–
COc1cccc2c1C(=O)c1c(O)c3c(c(O)c1C2=O)C[C@@](O)(C(=O)CO)C[C@@H]3O[C@H]1C[C@H](N)[C@H](O)[C@H](C)O1 [doxorubicin]	–	–	–	–	–	–	53.3	–	–	–	–	–
N.N.[Cl][Pt][Cl] [Cisplatin, cisplatin, reference compound]	–	–	–	–	–	–	–	8.75 ± 0.24	1.94 ± 0.2	6.42 ± 0.18	12.7 ± 0.33	20.8 ± 0.83
CC(C)c1ccc2c(c1)CCC1C(C)(C(=O)OCC(=O)NN=Cc3ccccc3Br)CCCC21C (centres unmarked) [4k, N’-(2-Bromobenzylidene)-2-(dehydroabietyloxy)acetohydrazide]	47.7 ± 0.23	184.9 to 185.7	< 10	< 10	48.16 ± 0.32	65.9 ± 1.48	–	–	5.53 ± 0.04	8.47 ± 0.55	–	–
COc1ccccc1C=NNC(=O)COC(=O)C1(C)CCCC2(C)c3ccc(C(C)C)cc3CCC12 (centres unmarked) [4n]	26.08 ± 0.05	190.3 to 191.8	45.13 ± 0.09	50.1 ± 0.74	23.8 ± 0.51	70.4 ± 2.23	–	–	–	–	–	–
CC(C)c1ccc2c(c1)CCC1C(C)(C(=O)OCC(=O)NN=Cc3ccccc3[N+](=O)[O-])CCCC21C (centres unmarked) [4h]	98.78 ± 0.45	94.9 to 96.7	15.2 ± 0.29	44.6 ± 0.92	38.5 ± 0.52	> 100	–	–	–	–	–	–
CC(C)c1ccc2c(c1)CCC1C(C)(C(=O)OCC(=O)NN=C/C=C/c3ccccc3)CCCC21C (centres unmarked) [4c, N’-(3-Phenylallylidene)-2-(dehydroabietyloxy)acetohydrazide]	15.8 ± 0.56	185.7 to 187.3	10.8 ± 0.43	27.6 ± 0.23	21.03 ± 0.09	53.2 ± 1.36	–	–	–	–	–	–
CC(C)c1ccc2c(c1)CCC1C(C)(C(=O)OCC(=O)NN=Cc3ccco3)CCCC21C (centres unmarked) [4f]	51.39 ± 0.34	125.7 to 126.4	33.23 ± 0.21	25.6 ± 0.35	16.9 ± 0.41	61.9 ± 1.34	–	–	–	–	–	–
CC(C)c1ccc2c(c1)CC[C@H]1[C@](C)(C(=O)O)CCC[C@]21C [DHA, dehydroabietic acid]	88.64 ± 0.73	–	37.4 ± 0.64	80.4 ± 0.84	46.7 ± 0.55	> 100	–	–	–	–	–	–
CC(C)c1ccc2c(c1)CCC1C(C)(C(=O)OCC(=O)NN=Cc3ccc(N(C)C)cc3)CCCC21C (centres unmarked) [4e]	48.85 ± 0.05	163.4 to 164.7	34.92 ± 0.16	7.62 ± 0.32	15.6 ± 0.44	63 ± 3.06	–	–	–	–	–	–
CC(C)c1ccc2c(c1)CCC1C(C)(C(=O)OCC(=O)NN=Cc3cccc(F)c3F)CCCC21C (centres unmarked) [4t]	33.3 ± 0.56	150.2 to 153.5	11.1 ± 0.15	22.89 ± 0.04	18.8 ± 0.59	72 ± 1.66	–	–	–	–	–	–
CC(C)c1ccc2c(c1)CCC1C(C)(C(=O)OCC(=O)NN=Cc3cccc(Br)c3)CCCC21C (centres unmarked) [4l]	11.45 ± 0.11	178.3 to 179.8	25.14 ± 0.1	35.1 ± 0.96	19.9 ± 0.27	86.4 ± 3.12	–	–	–	–	–	–
